Measured values taken from patent publication US20240050428A1 (Cullgen (Shanghai), Inc., priority 2020, published 2024).
Where two headings read alike, the source gives them in different places.

Tests used:
MV4;11 cells = experiment: Cell viability assay (CellTiter-Glo) in MV4;11 cells, alone or with gilteritinib; type: cell-based; details: Homo sapiens, MV4;11 cells, three days, CellTiter-Glo, read-out: MV4
MOLM-13 cells = experiment: Cell viability assay (CellTiter-Glo) in MOLM-13 cells, alone or with gilteritinib; type: cell-based; details: Homo sapiens, MOLM-13 cells, three days, CellTiter-Glo
[1] = MV4-11, 72 h, compound alone (without gilteritinib), 11 IC50
[2] = MV4-11, 72 h, with gilteritinib 10 nM, 11 IC50 gilteritinib
[3] = MOLM-13, 72 h, compound alone (without gilteritinib), read-out: MOLM-13 IC50
[4] = MOLM-13, 72 h, with gilteritinib 20 nM, read-out: MOLM-13 IC50 gilteritinib
[5] = MV4-11, 72 h, compound with gilteritinib 10 nM, 11 IC50 gilteritinib
[6] = MOLM-13, 72 h, compound with gilteritinib 20 nM, read-out: MOLM-13 IC50 gilteritinib

| Compound | IC50 (MV4;11 cells; [1]) | IC50 (MV4;11 cells; [2]) | IC50 (MOLM-13 cells; [3]) | IC50 (MOLM-13 cells; [4]) | IC50 (MV4;11 cells; [5]) | IC50 (MOLM-13 cells; [6]) | IC50 (MV4;11 cells; 72 h, compound alone (without gilteritinib), 11 IC50) | IC50 (MV4;11 cells; 72 h, compound with gilteritinib 10 nM, 11 IC50 gilteritinib) | IC50 (MOLM-13 cells; 72 h, compound alone (without gilteritinib), read-out: MOLM-13 IC50) | IC50 (MOLM-13 cells; 72 h, compound with gilteritinib 20 nM, read-out: MOLM-13 IC50 gilteritinib) |
| --- | --- | --- | --- | --- | --- | --- | --- | --- | --- | --- |
| Cc1nn(C2CC(CCCNc3ccc4c(c3)C(=O)N(C3CCC(=O)NC3=O)C4=O)C2)c(C)c1-c1cnc2cccc(F)c2n1 (stereo not drawn) [GS-156, 2-(2,6-Dioxopiperidin-3-yl)-5-((3-(3-(4-(8-fluoroquinoxalin-2-yl)-3,5-dimethyl-1H-pyrazol-1-yl)cyclobutyl)propyl)amino)isoindoline-1,3-dione] | > 1000 nM | 100 to 1000 nM | > 1000 nM | < 10 nM |  |  |  |  |  |  |
| O=C1CCC(N2C(=O)c3ccc(NCCC[C@H]4C[C@H](n5cc(-c6cnc7ccc(N8CCN(CC(F)(F)F)CC8)cc7n6)cn5)C4)cc3C2=O)C(=O)N1 (stereo partly drawn) [GS-587, 2-(2,6-Dioxopiperidin-3-yl)-5-((3-(trans-3-(4-(7-(4-(2,2,2-trifluoroethyl)piperazin-1-yl)quinoxalin-2-yl)-1H-pyrazol-1-yl)cyclobutyl)propyl)amino)isoindoline-1,3-dione] | 10 to 100 nM |  | 100 to 1000 nM |  | < 10 nM | < 10 nM |  |  |  |  |
| O=C1CCC(N2C(=O)c3ccc(NCCCCCC(=O)N4CCC(n5cc(-c6ncccn6)cn5)CC4)cc3C2=O)C(=O)N1 (stereo not drawn) [GS-051, 2-(2,6-Dioxopiperidin-3-yl)-5-((6-oxo-6-(4-(4-(pyrimidin-2-yl)-1H-pyrazol-1-yl)piperidin-1-yl)hexyl)amino)isoindoline-1,3-dione] | 10 to 100 nM | < 10 nM | 100 to 1000 nM | 10 to 100 nM |  |  |  |  |  |  |
| COc1cccc2ncc(-c3cnn(CCCCCCNc4ccc5c(c4)C(=O)N(C4CCC(=O)NC4=O)C5=O)c3)nc12 (stereo not drawn) [GS-391, 2-(2,6-Dioxopiperidin-3-yl)-5-((6-(4-(8-methoxyquinoxalin-2-yl)-1H-pyrazol-1-yl)hexyl)amino)isoindoline-1,3-dione] | > 1000 nM | > 1000 nM | > 1000 nM | 100 to 1000 nM |  |  |  |  |  |  |
| O=C1CCC(N2C(=O)c3ccc(NC[C@H]4C[C@H](n5cc(-c6ncccc6F)c(C6CC6)n5)C4)cc3C2=O)C(=O)N1 (stereo partly drawn) [GS-296, 5-(((trans-3-(3-Cyclopropyl-4-(3-fluoropyridin-2-yl)-1H-pyrazol-1-yl)cyclobutyl)methyl)amino)-2-(2,6-dioxopiperidin-3-yl)isoindoline-1,3-dione] | 10 to 100 nM | 10 to 100 nM | 100 to 1000 nM | 10 to 100 nM |  |  |  |  |  |  |
| O=C1CCC(N2C(=O)c3ccc(NC[C@H]4C[C@H](n5cc(-c6ncccc6NC6CCNCC6)c(C6CC6)n5)C4)cc3C2=O)C(=O)N1 (stereo partly drawn) [GS-304, 5-(((trans-3-(3-Cyclopropyl-4-(3-(piperidin-4-ylamino)pyridin-2-yl)-1H-pyrazol-1-yl)cyclobutyl)methyl)amino)-2-(2,6-dioxopiperidin-3-yl)isoindoline-1,3-dione] | > 1000 nM | > 1000 nM | > 1000 nM | > 1000 nM |  |  |  |  |  |  |
| CC(C)n1ccc2c(-c3cn([C@H]4C[C@H](CNc5ccc6c(c5)C(=O)N(C5CCC(=O)NC5=O)C6=O)C4)nc3C3CC3)nccc21 (stereo partly drawn) [GS-623, 5-(((trans-3-(3-Cyclopropyl-4-(1-isopropyl-1H-pyrrolo[3,2-c]pyridin-4-yl)-1H-pyrazol-1-yl)cyclobutyl)methyl)amino)-2-(2,6-dioxopiperidin-3-yl)isoindoline-1,3-dione] | 10 to 100 nM |  | 10 to 100 nM |  | < 10 nM | < 10 nM |  |  |  |  |
| CN1CCN(c2ccc3nc(-c4cn([C@H]5C[C@H](CNc6ccc7c(c6)C(=O)N(C6CCC(=O)NC6=O)C7=O)C5)nc4C4CC4)cnc3c2)CC1 (stereo partly drawn) [GS-314, 5-(((trans-3-(3-Cyclopropyl-4-(6-(4-methylpiperazin-1-yl)quinoxalin-2-yl)-1H-pyrazol-1-yl)cyclobutyl)methyl)amino)-2-(2,6-dioxopiperidin-3-yl)isoindoline-1,3-dione] | 10 to 100 nM | < 10 nM | 10 to 100 nM | < 10 nM |  |  |  |  |  |  |
| O=C1CCC(N2C(=O)c3ccc(NCCCCCC(=O)N4CCC(n5cc(-c6cnc7cccc(C8CCNCC8)c7n6)cn5)CC4)cc3C2=O)C(=O)N1 (stereo not drawn) [GS-044, 2-(2,6-dioxopiperidin-3-yl)-5-((6-oxo-6-(4-(4-(8-(piperidin-4-yl)quinoxalin-2-yl)-1H-pyrazol-1-yl)piperidin-1-yl)hexyl)amino)isoindoline-1,3-dione] | 10 to 100 nM | < 10 nM | 10 to 100 nM | < 10 nM |  |  |  |  |  |  |
| CN1CCN(c2cnn(C3CCN(C(=O)CCCCCNc4ccc5c(c4)C(=O)N(C4CCC(=O)NC4=O)C5=O)CC3)c2)CC1 (stereo not drawn) [GS-046, 2-(2,6-Dioxopiperidin-3-yl)-5-((6-(4-(4-(4-methylpiperazin-1-yl)-1H-pyrazol-1-yl)piperidin-1-yl)-6-oxohexyl)amino)isoindoline-1,3-dione] | > 1000 nM | 10 to 100 nM | 100 to 1000 nM | 10 to 100 nM |  |  |  |  |  |  |
| O=C1CCC(N2C(=O)c3ccc(NC[C@H]4C[C@H](n5cc(-c6ccc(NC7CCNCC7)cn6)c(C6CC6)n5)C4)cc3C2=O)C(=O)N1 (stereo partly drawn) [GS-302, 5-(((trans-3-(3-Cyclopropyl-4-(5-(piperidin-4-ylamino)pyridin-2-yl)-1H-pyrazol-1-yl)cyclobutyl)methyl)amino)-2-(2,6-dioxopiperidin-3-yl)isoindoline-1,3-dione] | > 1000 nM | > 1000 nM | > 1000 nM | > 1000 nM |  |  |  |  |  |  |
| O=C1CCC(N2C(=O)c3ccc(NC[C@H]4C[C@H](n5cc(-c6cnc7c(N8CC(O)C8)cccc7n6)c(C6CC6)n5)C4)cc3C2=O)C(=O)N1 (stereo partly drawn) [GS-610] | < 10 nM |  | < 10 nM |  | < 10 nM | < 10 nM |  |  |  |  |
| O=C1CCC(N2C(=O)c3ccc(NCCCc4cccc(N5CCC(c6ccccc6)CC5)c4)cc3C2=O)C(=O)N1 (stereo not drawn) [GS-504, 2-(2,6-Dioxopiperidin-3-yl)-5-((3-(3-(4-phenylpiperidin-1-yl)phenyl)propyl)amino)isoindoline-1,3-dione] |  |  |  |  |  |  | 100 to 1000 nM | 10 to 100 nM | 100 to 1000 nM | 10 to 100 nM |
| O=C1CCC(N2C(=O)c3ccc(NCCC[C@H]4C[C@@H](n5cc(-c6cnc7ccc(C8CCOCC8)cc7n6)cn5)C4)cc3C2=O)C(=O)N1 (stereo partly drawn) [GS-182, 2-(2,6-Dioxopiperidin-3-yl)-5-((3-(cis-3-(4-(7-(tetrahydro-2H-pyran-4-yl)quinoxalin-2-yl)-1H-pyrazol-1-yl)cyclobutyl)propyl)amino)isoindoline-1,3-dione] | 100 to 1000 nM | 10 to 100 nM | 100 to 1000 nM | < 10 nM |  |  |  |  |  |  |

Further lines, with some results ahead:

| IC50 (MV4;11 cells; [1]) | IC50 (MV4;11 cells; [2]) | IC50 (MOLM-13 cells; [3]) | IC50 (MOLM-13 cells; [4]) | IC50 (MV4;11 cells; [5]) | IC50 (MOLM-13 cells; [6]) | Compound | IC50 (MV4;11 cells; 72 h, compound alone (without gilteritinib), 11 IC50) | IC50 (MV4;11 cells; 72 h, compound with gilteritinib 10 nM, 11 IC50 gilteritinib) | IC50 (MOLM-13 cells; 72 h, compound alone (without gilteritinib), read-out: MOLM-13 IC50) | IC50 (MOLM-13 cells; 72 h, compound with gilteritinib 20 nM, read-out: MOLM-13 IC50 gilteritinib) |
| --- | --- | --- | --- | --- | --- | --- | --- | --- | --- | --- |
| 100 to 1000 nM | 10 to 100 nM | > 1000 nM | 10 to 100 nM |  |  | O=C1CCC(N2Cc3ccc(CCCCC4CC(n5cc(-c6cnc7ccccc7n6)cn5)C4)cc3C2=O)C(=O)N1 (stereo not drawn) [GS-225, 3-(1-Oxo-6-(4-(3-(4-(quinoxalin-2-yl)-1H-pyrazol-1-yl)cyclobutyl)butyl)isoindolin-2-yl)piperidine-2,6-dione] |  |  |  |  |
| > 1000 nM | 100 to 1000 nM | > 1000 nM | 100 to 1000 nM |  |  | O=C1CCC(N2C(=O)c3ccc(NCCCCCNc4ncc(-c5cnc6ccccc6n5)s4)cc3C2=O)C(=O)N1 (stereo not drawn) [GS-390, 2-(2,6-Dioxopiperidin-3-yl)-5-((5-((5-(quinoxalin-2-yl)thiazol-2-yl)amino)pentyl)amino)isoindoline-1,3-dione] |  |  |  |  |
| > 1000 nM | > 1000 nM | > 1000 nM | > 1000 nM |  |  | O=C1CCC(N2Cc3c(Nc4ccnc(NCC(=O)N5CCC(n6cc(-c7cnc8ccccc8n7)cn6)CC5)n4)cccc3C2=O)C(=O)N1 (stereo not drawn) [GS-091, 3-(1-Oxo-4-((2-((2-oxo-2-(4-(4-(quinoxalin-2-yl)-1H-pyrazol-1-yl)piperidin-1-yl)ethyl)amino)pyrimidin-4-yl)amino)isoindolin-2-yl)piperidine-2,6-dione] |  |  |  |  |
| > 1000 nM |  | > 1000 nM |  | > 1000 nM | > 1000 nM | O=C1CCC(N2Cc3ccc(NCCCCCn4cc(-c5cnc6ccccc6n5)cn4)cc3C2=O)C(=O)N1 (stereo not drawn) [GS-519, 3-(1-Oxo-6-((5-(4-(quinoxalin-2-yl)-1H-pyrazol-1-yl)pentyl)amino)isoindolin-2-yl)piperidine-2,6-dione] |  |  |  |  |
| 100 to 1000 nM | 10 to 100 nM | 100 to 1000 nM | 10 to 100 nM |  |  | N#Cc1cccc2ncc(-c3cnn(CCCCCCNc4ccc5c(c4)C(=O)N(C4CCC(=O)NC4=O)C5=O)c3)nc12 (stereo not drawn) [GS-165, 3-(1-(6-((2-(2,6-Dioxopiperidin-3-yl)-1,3-dioxoisoindolin-5-yl)amino)hexyl)-1H-pyrazol-4-yl)quinoxaline-5-carbonitrile] |  |  |  |  |
| 100 to 1000 nM | 100 to 1000 nM | > 1000 nM | > 1000 nM |  |  | O=C1CCC(N2C(=O)c3ccc(N4CCC(CCCn5cc(-c6cnc7ccccc7n6)cn5)CC4)cc3C2=O)C(=O)N1 (stereo not drawn) [GS-363, 2-(2,6-Dioxopiperidin-3-yl)-5-(4-(3-(4-(quinoxalin-2-yl)-1H-pyrazol-1-yl)propyl)piperidin-1-yl)isoindoline-1,3-dione] |  |  |  |  |
| > 1000 nM |  | > 1000 nM |  | > 1000 nM | > 1000 nM | Cc1nn([C@H]2C[C@H](CCCNc3ccc4c(c3)C(=O)N(C3CCC(=O)N(C)C3=O)C4=O)C2)cc1-c1cnc2ccccc2n1 (stereo partly drawn) [GS-639, 2-(1-Methyl-2,6-dioxopiperidin-3-yl)-5-((3-(trans-3-(3-methyl-4-(quinoxalin-2-yl)-1H-pyrazol-1-yl)cyclobutyl)propyl)amino)isoindoline-1,3-dione] |  |  |  |  |
